Where “and” joins values, the source holds several entries; their conditions need not be identical. Equal values may be shown once.
Columns and labels:
Sarcoma 180 ascites = assay: S180a screening (Sarcoma 180 ascites tumor model, survival); format: in vivo, Female CFW mice; details: for %ILS: ILS > 50% indicates activity
Description: (§1) The platinum-diphosphonate complexes were tested for antitumor activity using both Sarcoma 180 ascites and L1210 leukemia tumor models (see Tables 3 and 4).
Female CFW mice (18-25g) were implanted with 2 x 10^6 cells ip on day zero. Compounds were administered in 0.5 mL water ip on say one. Groups of 6 mice were used for each test dose as well as controls as defined above. The test was run for twice the MST of the control group, with survivors counted as dying on that day. An ILS of > 50% indicates activity. The tumor line was maintained through weekly transfer of 4 x 10^6 cells in CFW mice.

L1210 leukemia = assay: L1210 screening (L1210 leukemia tumor model, survival); format: in vivo, Female CDF, mice; details: for %ILS: 25% ILS or greater indicates activity, maximum 200%
Description: as §1
Female CDF, mice (16-22g) were injected with a suspension of 1x10^6 tumor cells in 0.5 mL of […] on day zero. On day one, the mice received the test compound in 0.5 mL of the chosen medium (usually water). Six mice were used for each test dose and six doses were normally given. Normal controls (six mice) received tumor on day zero and 0.5 mL of test medium on day one. Positive controls (six mice) were given tumor on day zero and 8 mg/kg cisplatin in 0.5 mL of […] on say one. All compound doses were adjusted for the actual average weight of the mice involved. Testing was terminated at 3 time the normal control mean life span. The percent increase in lifespan (%ILS) was calculated as follows: %ILS = [(mean life span (test)/mean life span (control))-1] X 100% A 25% ILS or greater indicates activity in this screen. The maximum possible ILS is 200%. The positive control must have an ILS > 25% for the test to be considered valid.

[1] = tested on: L1210 murine tumor system; details: Nepras, Masters Thesis 1979; cited from earlier work
[2] = L1210, dose 10.00 mg/kg day one
[3] = L1210, dose 20.00 mg/kg day one
[4] = L1210, dose 40.00 mg/kg day one
[5] = L1210, dose 80.00 mg/kg day one
[6] = L1210, dose 160.00 mg/kg day one
[7] = L1210, dose 320.00 mg/kg day one
[8] = L1210, survivors/mice, dose 10.00 mg/kg
[9] = L1210, survivors/mice, dose 20.00 mg/kg
[10] = L1210, survivors/mice, dose 40.00 mg/kg
[11] = L1210, survivors/mice, dose 80.00 mg/kg
[12] = L1210, survivors/mice, dose 160.00 mg/kg
[13] = L1210, survivors/mice, dose 320.00 mg/kg
[14] = survivors/mice, dose 10.00 mg/kg ip
[15] = survivors/mice, dose 20.00 mg/kg ip
[16] = survivors/mice, dose 40.00 mg/kg ip
[17] = survivors/mice, dose 80.00 mg/kg ip
[18] = survivors/mice, dose 320.00 mg/kg ip
[19] = survivors/mice, dose 160.00 mg/kg ip

| Compound | %ILS (L1210 leukemia; [2]) [%] | %ILS (L1210 leukemia; [3]) [%] | %ILS (L1210 leukemia; [4]) [%] | %ILS (L1210 leukemia; [5]) [%] | %ILS (L1210 leukemia; [6]) [%] | %ILS (L1210 leukemia; [7]) [%] | SURV (L1210 leukemia; [8]) | SURV (L1210 leukemia; [9]) | SURV (L1210 leukemia; [10]) | SURV (L1210 leukemia; [11]) | SURV (L1210 leukemia; [12]) | SURV (L1210 leukemia; [13]) | %ILS (Sarcoma 180 ascites; dose 10.00 mg/kg ip day one) [%] | %ILS (Sarcoma 180 ascites; dose 320.00 mg/kg ip day one) [%] | SURV (Sarcoma 180 ascites; [14]) | SURV (Sarcoma 180 ascites; [15]) | SURV (Sarcoma 180 ascites; [16]) | SURV (Sarcoma 180 ascites; [17]) | SURV (Sarcoma 180 ascites; [18]) | also measured |
| --- | --- | --- | --- | --- | --- | --- | --- | --- | --- | --- | --- | --- | --- | --- | --- | --- | --- | --- | --- | --- |
| N.N.[Cl][Pt][Cl] [cisplatin, reference compound] |  |  |  |  |  |  |  |  |  |  |  |  |  |  |  |  |  |  |  | POS CONT %ILS (Sarcoma 180 ascites; positive control of the respective experiment, 8 mg/kg cisplatin in saline, 8 mg/kg): 58% and 92% and 82% and 63%; POS CONT SURV (Sarcoma 180 ascites; survivors/mice, positive control of the respective experiment, 8 mg/kg cisplatin, 8 mg/kg): 2/ 5 and 4/ 6 and 3/ 6 and 1/ 6; POS CONT SURV (L1210 leukemia; L1210, survivors/mice, positive control of the respective experiment, 8 mg/kg cisplatin, 8 mg/kg): 3/ 6 and 4/ 6 and 0/ 6 and 1/ 6 |
| Na[Pt2(R,R-dach)2(PDP)] [Example 3] | 1 | 28 | 28 | 55 | 104 | 111 | 0/ 6 | 0/ 6 | 0/ 6 | 0/ 6 | 2/ 6 | 2/ 6 |  |  |  |  |  |  |  |  |
| NCCN.NCCN.O=P([O-])([O-])CP(=O)([O-])[O-].[Pt+2].[Pt+2] [[Pt2(en)2(MDP)]] |  |  |  |  |  |  |  |  |  |  |  |  |  |  |  |  |  |  |  | antitumor activity [1]: inactive |
| CC(O)(P(=O)([O-])[O-])P(=O)([O-])[O-].NC1CCCCC1N.NC1CCCCC1N.[Pt+2].[Pt+2] [Example 4, [Pt2(R,R-dach)2(HEDP)]] | 8 | 3 | 24 | 28 | 40 | 72 | 0/ 6 | 0/ 6 | 0/ 6 | 0/ 6 | 0/ 6 | 0/ 6 | -7 | 75 | 0/ 6 | 0/ 6 | 0/ 6 | 0/ 6 | 4/ 6 | %ILS (Sarcoma 180 ascites; dose 20.00 mg/kg ip day one, 20 mg/kg): -10% and -4%; %ILS (Sarcoma 180 ascites; dose 160.00 mg/kg ip day one, 160 mg/kg): 95% and 77%; %ILS (Sarcoma 180 ascites; dose 256.00 mg/kg ip day one): 47%; SURV (Sarcoma 180 ascites; survivors/mice, dose 160.00 mg/kg ip, 160 mg/kg): 5/ 6 and 3/ 6; SURV (Sarcoma 180 ascites; survivors/mice, dose 256.00 mg/kg ip): 1/ 6 |
| [Pt2(en)2(PDP-D-glucosamine)] [Example 5] | -8 | -15 | 10 | 4 | 13 | 16 |  | 0/ 6 | 0/ 6 | 0/ 6 | 0/ 6 | 0/ 6 | 0 | 28 | 0/ 6 | 0/ 6 | 0/ 6 | 0/ 6 | 0/ 5 | %ILS (Sarcoma 180 ascites; dose 20.00 mg/kg ip day one): -3%; %ILS (Sarcoma 180 ascites; dose 40.00 mg/kg ip day one): -5%; %ILS (Sarcoma 180 ascites; dose 80.00 mg/kg ip day one): 0%; %ILS (Sarcoma 180 ascites; dose 160.00 mg/kg ip day one): 0%; SURV (Sarcoma 180 ascites; [19]): 0/ 6 |
| Na[Pt2(en)2(PDP)] [Example 2] | 0 | -3 | 0 | 20 | 23 | 11 | 0/ 6 | 0/ 6 | 0/ 6 | 0/ 6 | 0/ 6 | 0/ 6 | -4 | 49 | 0/ 6 | 0/ 6 | 0/ 6 | 1/ 6 | 1/ 6 | %ILS (Sarcoma 180 ascites; dose 20.00 mg/kg ip day one): 5%; %ILS (Sarcoma 180 ascites; dose 40.00 mg/kg ip day one): 6%; %ILS (Sarcoma 180 ascites; dose 80.00 mg/kg ip day one): 27%; %ILS (Sarcoma 180 ascites; dose 160.00 mg/kg ip day one): 48%; SURV (Sarcoma 180 ascites; [19]): 1/ 6 |
| CC(O)(P(=O)([O-])[O-])P(=O)([O-])[O-].NCCN.NCCN.[Pt+2].[Pt+2] [[Pt2(en)2(HEDP)]] |  |  |  |  |  |  |  |  |  |  |  |  |  |  |  |  |  |  |  | antitumor activity [1]: inactive |
| [Pt2(en)2(PDP-hydrazide)] [Example 7] | -14 | 21 | -18 | -14 | 20 | 0 | 0/ 6 | 0/ 6 | 0/ 6 | 0/ 6 | 0/ 6 | 0/ 6 |  |  |  |  |  |  |  |  |

Reference: patent EP0409527A2, “Cis-diamineplatinum complexes with methanediphosphonate and substituted methanediphosphonate ligands as antitumor agents” (ENGELHARD CORPORATION, priority 1989, dated 1991)
